Results as given in US8633204B2 (Pfizer Inc., priority 2006, dated 2014).

test system: PI3-K in BT20 cells (phosphorylation of AKT at serine 473); experiment: PI3-Kα Cellular Assay (AKT Ser473 phosphorylation ELISA in BT20 cells); assay type: cell-based, human; details: Homo sapiens, BT-20, pAKT Ser473 ELISA, 1 hour incubation
Procedure: Compounds of the present invention were evaluated for potency against PI3-K using a cellular assay as follows.
Healthy growing human breast cancer cells BT20 (PI3K mutated) are used for the assay. BT20 cells are grown in 10% FBS+GLN (1:100)+PS (1:100)+1 mM Sodium Pyruvate+0.1 mM Sodium Bicarbonate+Non-Essential Amino Acids Solution (1:100) MEM medium (MEM+all). […] The cells are re-suspended in 10% FBS MEM all and are centrifuged down at 1400 rpm for 5 minutes. The cells are re-suspended in 0.5% FBS MEM all and are counted on a cell counter. The cells are seeded at 25,000 cells/well in volume of 100 μL/well in 0.5% FBS MEM all in a 96 well flat-bottom plate. The negative control wells receive only 100 μL of 0.5% FBS MEM all medium without cells. The plate is incubated overnight in a cell culture incubator with 5% CO2 at 37° C.
On day 2, testing compounds are prepared in 0.5% FBS MEM all medium and serially diluted at 1:3 for 11 test concentrations. Each concentration of the compounds is tested in duplicate. The compound solutions are added at 25 μL/well to the corresponded wells in cell plate, and 25 μL/well of the vehicle (0.5% DMSO in 0.5% FBS MEM all) is added to the negative control wells (no cells) and the positive control wells (cells without compounds). The plate is incubated for 1 hour in a cell culture incubator with 5% CO2 at 37° C. After 1 hour of incubation, the medium is removed, 100 μL/well of cell lysis buffer is added into the cell plate, and shake for 15 minutes at room temperature. […] After 1 hour, empty the contents of the wells, wash the plate 4 times with the wash buffer, and add 100 μL of TMB substrate solution (catalog #T0440, Sigma) into each well, and incubate with gentle shaking at room temperature for […]. After 15 minutes of color development, add 100 μL of stop solution (1N hydrochloric acid) to each well, and read the plate at 450 nm on ELISA plate reader.

IC50 [µM] | Compound
0.00349 | Cc1nc(N)nc2c1cc(-c1cn[nH]c1)c(=O)n2C1CCCC1 [Compound 101, 2-amino-8-cyclopentyl-6-(1H-pyrazol-4-yl)-4-methylpyrido[2,3-d]pyrimidin-7(8H)-one]
0.019 | COc1ccc(-c2cc3c(C)nc(N)nc3n([C@H]3CC[C@@H](O)CC3)c2=O)cn1 [Compound 174, 2-amino-8-(cis-4-hydroxycyclohexyl)-6-(6-methoxypyridin-3-yl)-4-methylpyrido[2,3-d]pyrimidin-7(8H)-one]
0.00792 | COc1ncc(-c2cc3c(C)nc(N)nc3n(C3CCCC3)c2=O)cc1F [Compound 254, 2-amino-8-cyclopentyl-6-(5-fluoro-6-methoxypyridin-3-yl)-4-methylpyrido[23-d]pyrimidin-7(8H)-one]
0.0437 | COc1ncc(-c2cc3c(C)nc(N)nc3n([C@H]3CC[C@@H](O)CC3)c2=O)cn1 [Compound 272, 2-amino-8-(cis-4-hydroxycyclohexyl)-6-(2-methoxypyrimidin-5-yl)-4-methylpyrido[2,3-d]pyrimidin-7(8H)-one]
0.137 | Cc1nc(N)nc2c1cc(-c1ccn[nH]1)c(=O)n2[C@H]1CC[C@H](OCCO)CC1 [Compound 301, 2-amino-8-[trans-4-(2-hydroxyethoxy)cyclohexyl]-4-methyl-6-(1H-pyrazol-3-yl)pyrido[2,3-d]pyrimidin-7(8H)-one]
0.00466 | Cc1nc(N)nc2c1cc(-c1cn[nH]c1)c(=O)n2C1CCC(=O)CC1 [Compound 176, 2-amino-4-methyl-8-(4-oxocyclohexyl)-6-(1H-pyrazol-4-yl)pyrido[2,3-d]pyrimidin-7(8H)-one]
0.0031 | COc1ncc(-c2cc3c(C)nc(N)nc3n([C@H]3CC[C@H](O)CC3)c2=O)cc1F [Compound 191, 2-amino-6-[5-fluoro-6-methoxypyridin-3-yl)-8-(trans-4-hydroxycyclohexyl)-4-methylpyrido[2,3-d]pyrimidin-7(8H)-one]
0.623 | Cc1nc(N)nc2c1cc(-c1cnn(C)c1)c(=O)n2C1CCCC1 [Compound 235, 2-Amino-8-cyclopentyl-4-methyl-6-(1-methyl-1H-pyrazol-yl)-8H-pyrido[2,3-d]pyrimidin-7-one]
0.0714 | COc1ccc(-c2cc3c(C)nc(N)nc3n(C3CCOCC3)c2=O)cn1 [Compound 200, 2-amino-6-(6-methoxypyridin-3-yl)-4-methyl-8-(tetrahydro-2H-pyran-4-yl)pyrido[2,3-d]pyrimidin-7(8H)-one]
0.00802 | COc1ncc(-c2cc3c(C)nc(N)nc3n([C@H]3CC[C@@H](O)CC3)c2=O)cc1F [Compound 177]
0.0949 | Cc1nc(N)nc2c1cc(-c1cn[nH]c1)c(=O)n2CC1CCOC1 (stereo not drawn) [Compound 219, 2-amino-4-methyl-6-(1H-pyrazol-4-yl)-8-((tetrahydrofuran-3-yl)methyl)pyrido[2,3-d]pyrimidin-7(8H)-one]
0.0251 | COc1ncc(-c2cc3c(C)nc(N)nc3n([C@H]3CC[C@H](O)CC3)c2=O)cn1 [Compound 273, 2-amino-8-(trans-4-hydroxycyclohexyl)-6-(2-methoxypyrimidin-5-yl)-4-methylpyrido[2,3-d]pyrimidin-7(8H)-one]
0.934 | Cc1nc(N)nc2c1cc(-c1cnn(C)c1)c(=O)n2[C@@H]1CC[C@H](O)C1 [Compound 161, 2-amino-8-[(1R,3S)-3-hydroxycyclopentyl]-4-methyl-6-(1-methyl-1H-pyrazol-4-yl)pyrido[2,3-d]pyrimidin-7(8H)-one]
1.3 | Cc1nc(N)nc2c1cc(-c1cnn(C)c1)c(=O)n2[C@@H]1CC[C@@H](O)C1 [Compound 164, 2-amino-8-[(1R,3R)-3-hydroxycyclopentyl]-4-methyl-6-(1-methyl-1H-pyrazol-4-yl)pyrido[2,3-d]pyrimidin-7(8H)-one]
0.262 | Cc1nc(N)nc2c1cc(-c1cn[nH]c1)c(=O)n2[C@@H]1CC[C@@H](O)C1 [Compound 166, 2-amino-8-[(1R,3R)-3-hydroxycyclopentyl]-4-methyl-6-(1H-pyrazol-4-yl)pyrido[2,3-d]pyrimidin-7(8H)-one]
0.00469 | CO[C@H]1CC[C@H](n2c(=O)c(-c3cn[nH]c3)cc3c(C)nc(N)nc32)CC1 [Compound 183, 2-amino-8-(trans-4-methoxycyclohexyl)-4-methyl-6-(1H-pyrazol-4-yl)pyrido[2,3-d]pyrimidin-7(8H)-one]
0.00339 | COc1ncc(-c2cc3c(C)nc(N)nc3n([C@H]3CC[C@H](OC)CC3)c2=O)cc1F [Compound 180, 2-amino-6-(5-fluoro-6-methoxypyridin-3-yl)-8-(trans-4-methoxycyclohexyl)-4-methylpyrido[2,3-d]pyrimidin-7(8H)-one]

The remaining lines, values behind:

Compound | IC50 [µM]
Cc1nc(N)nc2c1cc(-c1ccc3c(c1)OCCO3)c(=O)n2[C@H]1CC[C@H](O)CC1 [Compound 261, 2-amino-6-(2,3-dihydro-1,4-benzodioxin-6-yl)-8-(trans-4-hydroxycylohexyl)-4-methylpyrido[23-d]pyrimidin-7(8H)-one] | 0.0348
COc1ccc(-c2cc3c(C)nc(N)nc3n(CC(C)(C)O)c2=O)cn1 [Compound 169, 2-amino-8-(2-hydroxy-2-methylpropyl)-6-(6-methoxypyridin-3-yl)-4-methylpyrido[2,3-d]pyrimidin-7(8H)-one] | 0.34
Cc1nc(N)nc2c1cc(Br)c(=O)n2CC(C)(C)O [Compound 167, 2-amino-6-bromo-8-(2-hydroxy-2-methylpropyl)-4-methylpyrido[2,3-d]pyrimidin-7(8H)-one] | 2.36
CCNc1nc(C)c2cc(-c3ccc(O)c(OC)c3)c(=O)n(C3CCCC3)c2n1 [Compound 136, 8-cyclopentyl-2-(ethylamino)-6-(4-hydroxy-3-methoxyphenyl)-4-methylpyrido[2,3-d]pyrimidin-7(8H)-one] | 0.0263
COc1ccc(-c2cc3c(C)nc(N)nc3n([C@H]3CC[C@H](OCCO)CC3)c2=O)cn1 [Compound 286, 2-amino-8-[trans-4-(2-hydroxyethoxy)cyclohexyl]-6-(6-methoxypyridin-3-yl)-4-methylpyrido[2,3-d]pyrimidin-7(8H)-one] | 0.0131
COc1ccc(-c2cc3c(C)nc(N)nc3n([C@H]3CC[C@@H](OCC(N)=O)CC3)c2=O)cn1 [Compound 303] | 0.0205
CCNc1nc(C)c2cc(-c3ccc(OC)nc3)c(=O)n(C3CCCC3)c2n1 [Compound 139, 8-cyclopentyl-2-(ethylamino)-6-(6-methoxypyridin-3-yl)-4-methylpyrido[2,3-d]pyrimidin-7(8H)-one] | 0.017
CCOC(=O)c1cccc(-c2cc3c(C)nc(NC)nc3n(C3CCCC3)c2=O)c1 [Compound 141, ethyl 3-[8-cyclopentyl-4-methyl-2-(methylamino)-7-oxo-7,8-dihydropyrido[2,3-d]pyrimidin-6-yl]benzoate] | 10
CCNc1nc(C)c2cc(-c3cccc(O)c3)c(=O)n(C3CCCC3)c2n1 [Compound 144, 8-cyclopentyl-2-(ethylamino)-6-(3-hydroxyphenyl)-4-methylpyrido[2,3-d]pyrimidin-7(8H)-one] | 0.00305
COc1ccc(-c2cc3c(C)nc(N)nc3n([C@H]3CC[C@@H](OCCO)CC3)c2=O)cn1 [Compound 285, 2-Amino-8-(cis-4-(2-hydroxyethoxy)cyclohexyl)-6-(6-methoxypyridin-3-yl)-4-methylpyrido[2,3-d]pyrimidin-7(8H)-one] | 0.018
Cc1nc(N)nc2c1cc(-c1cnc3[nH]ccc3c1)c(=O)n2CC(C)(C)O [Compound 172, 2-amino-8-(2-hydroxy-2-methylpropyl)-4-methyl-6-(1H-pyrrolo[2,3-b]pyridin-5-yl)pyrido[2,3-d]pyrimidin-7(8H)-one] | 0.116
COc1ncc(-c2cc3c(C)nc(N)nc3n([C@H]3CC[C@@H](OCC(N)=O)CC3)c2=O)cn1 [Compound 307, 2-({cis-4-(2-amino-6-(2-methoxypyrimidin-5-yl)-4-methyl-7-oxopyrido[2,3-d]pyrimidin-8(7H)-yl]cyclohexyl}oxy)acetamide] | 0.0829
CNc1nc(C)c2cc(C(=O)Nc3ccccn3)c(=O)n(C3CCCC3)c2n1 [Compound 282, 8-cyclopentyl-4-methyl-2-(methylamino)-7-oxo-N-pyridin-2-yl-7,8-dihydropyrido[2,3-d]pyrimidine-6-carboxamide] | 0.265
COc1ccc(-c2cc3c(C)nc(N)nc3n(CC(C)C)c2=O)cn1 [Compound 241, 2-Amino-8-isobutyl-6-(6-methoxy-pyridin-3-yl)-4-methyl-8H-pyrido[2,3-d]pyrimidin-7-one] | 0.0793
CNc1nc(C)c2cc(-c3ccc(OC)nc3)c(=O)n(C3CCCC3)c2n1 [Compound 140] | 0.000793
COc1ccc(-c2cc3c(C)nc(N)nc3n(CC3CCOC3)c2=O)cn1 (stereo not drawn) [Compound 220, 2-amino-6-(6-methoxypyridin-3-yl)-4-methyl-8-((tetrahydrofuran-3-yl)methyl)pyrido[2,3-d]pyrimidin-7(8H)-one] | 0.145
